Type in all cases: cell-based
One data set addresses human CXCR3A (Homo sapiens (Human), UniProt P49682). The data set is described as follows: FLIPR assay (CXCL10-induced calcium signal). Conditions: CHO-K1 cells expressing human CXCR3A coupled to Galpha(16); CXCL10 agonist 20 nM; mean values. The text has this: In the case where IC50 values have been determined several times for the same compound, mean values are given.
The next data set concerns the target hERG K channel (Homo sapiens (Human), UniProt Q12809). The experiment in a line: hERG Q-Patch assay. The following applies: CHO cells expressing hERG, K+ tail current 3 min after application, mean of two or three experiments. On the procedure:
Compounds are evaluated for block of the hERG K channel using CHO cells stably expressing the hERG gene (accession number U04270, bSys, Witterswil, Switzerland) and the QPatch robotic platform (Sophion, Ballerup, Denmark) in single-cell mode at room temperature. Cells are grown in culture flasks at 37° C. in 5% CO2, in culture medium (Ham's F-12 Nutrient Mixture, Invitrogen 21765-029) supplemented with 9% (v/v) fetal calf serum, 0.9% Penicillin/Streptomycin (10,000 U/mL, Invitrogen 15140148), 100 μg/mL Hygromycin B (Invitrogen 10687010). When the cells are ˜80% confluent (every 2-3 days), they are either split for further culture or used for electrophysiology. For further culture, cells are detached with 0.25% Trypsin EDTA solution (Invitrogen 25200-056) and a fraction of the cells (10-30%) is reseeded in culture medium. For electrophysiology, on the experimental day, cells are detached with 0.25% Trypsin EDTA solution and all cells are suspended in suspension medium (293 SFM II, Invitrogen 11686-029) supplemented with 20 mM HEPES and 0.04 mg/mL Trypsin inhibitor. Cells are kept in suspension medium at 32-35° C. in the QPatch robot until use, at which time aliquots are transferred to the extracellular solution (in mM: NaCl 150; KCl 4; CaCl2 1.2; MgCl2 1; HEPES 10; pH 7.4 with NaOH) containing 0.3% v/v DMSO and applied to the test plates. K^+ currents are measured with the patch-voltage-clamp technique in the whole-cell configuration with the internal solution (in mM: KCl, 140; NaCl, 10; MgCl2, 1; HEPES, 10: EGTA, 5; pH=7.2 with KOH). Currents are low-pass filtered using the internal Bessel filter of the QPatch robot with a cut-off frequency of 2 kHz and are digitized at 10 kHz. K^+ tail currents are produced from a holding voltage of −80 mV by a 500-ms depolarization to +20 mV followed by a 500-ms repolarization to −40 mV; tail current amplitudes are measured at the end of the repolarization to −40 mV. The pulse pattern is repeated every 10 sec during the experiment, baseline K^+ current is measured after 3 min in extracellular solution, test-solution containing compound is then applied, and K^+ current in presence of compound is measured 3 minutes after application to the cells. The respective test-solution is prepared by (1) dissolving the test-compound in pure DMSO, (2) diluting this DMSO solution in extracellular solution, and (3) adding further DMSO, such that the final test-solution has a concentration of either 300 nM or 3000 nM of the test-compound and contains 0.3% v/v DMSO. Compound effects are quantified as % block by dividing the current in presence of compound by the baseline current; two or three experiments are performed for each compound and the final value represents the mean of the results of each experiment.
(In general: hERG is a cardiac potassium channel; its block is linked to QT prolongation.)

For another data set, the target named is CXCR3 (Homo sapiens (Human), UniProt P49682). The data set is described as follows: Receptor internalization assay in human whole blood (CXCR3 surface expression on CD4 positive cells, CXCL10). Conditions: final CXCL10 9 nM, 30 min at 37° C., mean values. The method in brief: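 Human whole blood with compound plus CXCL10 (9 nM final), 30 min at 37 °C in CO2 incubator, then stained for CXCR3 and CD4 and RBC-lysed. Flow cytometry mean CXCR3 fluorescence on CD4+ cells fitted to single-site dose response for IC50; repeated determinations averaged.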

pIC50: −log10 of the molar value.

Sequence of human CXCR3A (P49682 whole entry): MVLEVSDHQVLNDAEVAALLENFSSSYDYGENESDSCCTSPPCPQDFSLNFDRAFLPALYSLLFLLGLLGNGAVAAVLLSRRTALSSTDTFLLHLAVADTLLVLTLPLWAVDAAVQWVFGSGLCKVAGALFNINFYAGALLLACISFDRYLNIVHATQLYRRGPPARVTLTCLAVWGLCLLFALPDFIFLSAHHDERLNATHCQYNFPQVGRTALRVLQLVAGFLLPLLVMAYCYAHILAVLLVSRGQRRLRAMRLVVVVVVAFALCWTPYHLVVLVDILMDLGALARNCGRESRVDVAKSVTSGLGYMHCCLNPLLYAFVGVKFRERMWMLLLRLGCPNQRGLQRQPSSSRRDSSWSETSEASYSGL
Sequence of CXCR3 (P49682 whole entry): as above
Sequence of hERG K channel (Q12809 whole entry): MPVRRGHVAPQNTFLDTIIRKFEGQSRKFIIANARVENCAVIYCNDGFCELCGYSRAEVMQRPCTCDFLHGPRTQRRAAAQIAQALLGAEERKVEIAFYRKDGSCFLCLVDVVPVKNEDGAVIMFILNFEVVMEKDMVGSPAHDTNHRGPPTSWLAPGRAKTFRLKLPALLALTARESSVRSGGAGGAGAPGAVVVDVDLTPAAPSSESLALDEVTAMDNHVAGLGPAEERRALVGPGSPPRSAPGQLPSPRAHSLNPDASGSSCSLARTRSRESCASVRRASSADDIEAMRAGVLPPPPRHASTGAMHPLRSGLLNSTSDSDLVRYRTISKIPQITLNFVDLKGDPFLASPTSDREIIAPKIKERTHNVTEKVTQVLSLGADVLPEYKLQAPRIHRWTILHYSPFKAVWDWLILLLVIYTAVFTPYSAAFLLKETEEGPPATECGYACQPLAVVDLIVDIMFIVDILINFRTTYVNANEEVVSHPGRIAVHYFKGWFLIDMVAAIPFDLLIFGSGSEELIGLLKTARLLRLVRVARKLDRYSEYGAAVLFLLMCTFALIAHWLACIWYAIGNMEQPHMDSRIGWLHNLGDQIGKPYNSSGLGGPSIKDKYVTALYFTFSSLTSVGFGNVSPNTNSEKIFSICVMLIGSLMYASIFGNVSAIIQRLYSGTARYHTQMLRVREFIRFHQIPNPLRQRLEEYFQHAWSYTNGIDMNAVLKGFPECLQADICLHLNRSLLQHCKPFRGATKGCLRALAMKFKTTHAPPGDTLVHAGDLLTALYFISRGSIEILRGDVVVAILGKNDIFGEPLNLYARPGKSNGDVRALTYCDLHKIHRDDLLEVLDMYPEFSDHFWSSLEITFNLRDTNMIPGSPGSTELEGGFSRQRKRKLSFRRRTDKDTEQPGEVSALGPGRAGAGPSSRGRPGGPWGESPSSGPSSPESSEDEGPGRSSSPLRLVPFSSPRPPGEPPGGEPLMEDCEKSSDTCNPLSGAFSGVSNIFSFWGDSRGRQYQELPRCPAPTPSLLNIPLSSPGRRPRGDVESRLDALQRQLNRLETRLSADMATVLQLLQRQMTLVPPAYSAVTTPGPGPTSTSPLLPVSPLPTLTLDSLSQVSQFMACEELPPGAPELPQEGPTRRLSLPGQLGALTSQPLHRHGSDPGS

For `CCc1ncn(CC(=O)N2CCN(c3sc(C(F)(F)F)nc3-c3cnc(C(F)(F)F)nc3)C[C@H]2CCO)n1` [Example 32, 2-(3-Ethyl-[1,2,4]triazol-1-yl)-1-{(R)-2-(2-hydroxy-ethyl)-4-[2-trifluoromethyl-4-(2-trifluoromethyl-pyrimidin-5-yl)-thiazol-5-yl]-piperazin-1-yl}-ethanone], the figures for the pIC50 on human CXCR3A and against CXCR3 were 8.59 and 7.03, respectively. In addition, the entries for the “% block” value at hERG K channel (concentration 300 nM) and on hERG K channel (concentration 3000 nM) were 0% and 19%, respectively.

Take `CCc1ncnn1CC(=O)N1CCN(c2sc(C(F)(F)F)nc2-c2cnc(C(F)(F)F)nc2)C[C@H]1CCO` [Example 33, 2-(5-Ethyl-[1,2,4]triazol-1-yl)-1-{(R)-2-(2-hydroxy-ethyl)-4-[2-trifluoromethyl-4-(2-trifluoromethyl-pyrimidin-5-yl)-thiazol-5-yl]-piperazin-1-yl}-ethanone]: the figures for the pIC50 on human CXCR3A and on CXCR3 were 7.57 and 6.19, respectively. The results for the “% block” value on hERG K channel (concentration 300 nM) and on hERG K channel (concentration 3000 nM) were −5% and 6%, respectively.

In the case of `CC(C)c1ncn(CC(=O)N2CCN(c3sc(C(F)(F)F)nc3-c3cnc(C(F)(F)F)nc3)C[C@H]2CCO)n1` [Example 34, 1-{(R)-2-(2-Hydroxy-ethyl)-4-[2-trifluoromethyl-4-(2-trifluoromethyl-pyrimidin-5-yl)-thiazol-5-yl]-piperazin-1-yl}-2-(3-isopropyl-[1,2,4]triazol-1-yl)-ethanone], the pIC50 (commonly −log10 of the IC50, conventionally taken in molar units) on human CXCR3A is 8.35; against CXCR3 it was 7.07. In addition, the entries for the “% block” value on hERG K channel (concentration 300 nM) and on hERG K channel (concentration 3000 nM) were 10% and 34%, respectively.

With `Cc1ncn(CC(=O)N2CCN(c3sc(C(F)(F)F)nc3-c3cnc(C(F)(F)F)nc3)C[C@H]2CCO)n1` [Example 35, 1-{(R)-2-(2-Hydroxy-ethyl)-4-[2-trifluoromethyl-4-(2-trifluoromethyl-pyrimidin-5-yl)-thiazol-5-yl]-piperazin-1-yl}-2-(3-methyl-[1,2,4]triazol-1-yl)-ethanone], the pIC50 on human CXCR3A was 8.54; against CXCR3, 6.99. The results for the “% block” value at hERG K channel (concentration 300 nM) and at hERG K channel (concentration 3000 nM) were 11% and 25%, respectively.

Take `Cc1ncnn1CC(=O)N1CCN(c2sc(C(F)(F)F)nc2-c2cnc(C(F)(F)F)nc2)C[C@H]1CCO` [Example 36, 1-{(R)-2-(2-Hydroxy-ethyl)-4-[2-trifluoromethyl-4-(2-trifluoromethyl-pyrimidin-5-yl)-thiazol-5-yl]-piperazin-1-yl}-2-(5-methyl-[1,2,4]triazol-1-yl)-ethanone]: the pIC50 at human CXCR3A was 8.10; on CXCR3 it was 6.35. The “% block” value is listed as 10% at hERG K channel (concentration 300 nM) and 19% at hERG K channel (concentration 3000 nM).

`COCc1ncn(CC(=O)N2CCN(c3sc(C(F)(F)F)nc3-c3cnc(C(F)(F)F)nc3)C[C@H]2CCO)n1` [Example 37, 1-{(R)-2-(2-Hydroxy-ethyl)-4-[2-trifluoromethyl-4-(2-trifluoromethyl-pyrimidin-5-yl)-thiazol-5-yl]-piperazin-1-yl}-2-(3-methoxymethyl-[1,2,4]triazol-1-yl)-ethanone]: the figures for the pIC50 on human CXCR3A and against CXCR3 were 8.24 and 6.41, respectively. In addition, the “% block” value at hERG K channel (concentration 300 nM) was 4%; on hERG K channel (concentration 3000 nM), 9%.

With `Cc1ccn(CC(=O)N2CCN(c3sc(C(F)(F)F)nc3-c3cnc(C(F)(F)F)nc3)C[C@H]2CCO)n1` [Example 39, 1-{(R)-2-(2-Hydroxy-ethyl)-4-[2-trifluoromethyl-4-(2-trifluoromethyl-pyrimidin-5-yl)-thiazol-5-yl]-piperazin-1-yl}-2-(3-methyl-pyrazol-1-yl)-ethanone], the pIC50 is 9.00 on human CXCR3A and 7.33 on CXCR3. Moreover, the “% block” value on hERG K channel (concentration 300 nM) was 1%; at hERG K channel (concentration 3000 nM) it was 32%.

Consider `CCc1ccn(CC(=O)N2CCN(c3sc(C(F)(F)F)nc3-c3cnc(C(F)(F)F)nc3)C[C@H]2CCO)n1` [Example 40, 2-(3-Ethyl-pyrazol-1-yl)-1-{(R)-2-(2-hydroxy-ethyl)-4-[2-trifluoromethyl-4-(2-trifluoromethyl-pyrimidin-5-yl)-thiazol-5-yl]-piperazin-1-yl}-ethanone], for which the values for the pIC50 on human CXCR3A and at CXCR3 were 8.80 and 7.49, respectively. The “% block” value is listed as 5% on hERG K channel (concentration 300 nM) and 47% at hERG K channel (concentration 3000 nM).

As for `O=C(Cn1ccc(C2CC2)n1)N1CCN(c2sc(C(F)(F)F)nc2-c2cnc(C(F)(F)F)nc2)C[C@H]1CCO` [Example 41, 2-(3-Cyclopropyl-pyrazol-1-yl)-1-{(R)-2-(2-hydroxy-ethyl)-4-[2-trifluoromethyl-4-(2-trifluoromethyl-pyrimidin-5-yl)-thiazol-5-yl]-piperazin-1-yl}-ethanone], the pIC50 on human CXCR3A is 9.35; against CXCR3, 7.52. Further, the “% block” value on hERG K channel (concentration 300 nM) is on record as 12%; at hERG K channel (concentration 3000 nM) it was 60%.

Turning to `Cc1ccn(CC(=O)N2CCN(c3sc(C(F)(F)F)nc3-c3cnc(C(F)(F)F)nc3)C[C@H]2CO)n1` [Example 42, 1-{(S)-2-Hydroxymethyl-4-[2-trifluoromethyl-4-(2-trifluoromethyl-pyrimidin-5-yl)-thiazol-5-yl]-piperazin-1-yl}-2-(3-methyl-pyrazol-1-yl)-ethanone], the figures for the pIC50 at human CXCR3A and on CXCR3 were 9.00 and 7.22, respectively. Besides, the “% block” value at hERG K channel (concentration 300 nM) is listed as 2%; at hERG K channel (concentration 3000 nM), 15%.

In the case of `CCc1ccn(CC(=O)N2CCN(c3sc(C(F)(F)F)nc3-c3cnc(C(F)(F)F)nc3)C[C@H]2CO)n1` [Example 43, 2-(3-Ethyl-pyrazol-1-yl)-1-{(S)-2-hydroxymethyl-4-[2-trifluoromethyl-4-(2-trifluoromethyl-pyrimidin-5-yl)-thiazol-5-yl]-piperazin-1-yl}-ethanone], the negative logarithm of the IC50 (pIC50) at human CXCR3A is 8.92; against CXCR3, 7.39. The “% block” value on hERG K channel (concentration 300 nM) is listed as 5%; on hERG K channel (concentration 3000 nM), 25%.

Consider `O=C(Cn1ccc(C2CC2)n1)N1CCN(c2sc(C(F)(F)F)nc2-c2cnc(C(F)(F)F)nc2)C[C@H]1CO` [Example 44, 2-(3-Cyclopropyl-pyrazol-1-yl)-1-{(S)-2-hydroxymethyl-4-[2-trifluoromethyl-4-(2-trifluoromethyl-pyrimidin-5-yl)-thiazol-5-yl]-piperazin-1-yl}-ethanone], for which the figures for the pIC50 at human CXCR3A and at CXCR3 were 9.42 and 7.12, respectively. Further, the “% block” value at hERG K channel (concentration 300 nM) worked out at 5%; at hERG K channel (concentration 3000 nM), 34%.
